According to patent US8962600B2, “Neuroprotective compounds and their use” (The Medical College of Wisconsin, Inc., priority 2009, dated 2015):

How the values were obtained:
[1] = tested on: 3-nitrotyrosine (3-NT); assay: 3-nitrotyrosine expression in substantia nigra, Western blot and immunostaining; assay type: in vivo, C57BL/6 mice
Procedure: (§1) For checking inflammatory and oxidative stress markers, mice were gavaged diapocynin (300 mg/kg dose) 1 day before MPTP treatment (pre-treatment) and continued for another 4 days of co-treatment with MPTP. In the sub-acute MPTP regimen, MPTP (25 mg/kg) was injected intraperitoneally once per day from day 2 to day 7. Control mice received saline at the same dosage.
Four days after MPTP treatment, mice were perfused with 4% paraformaldehyde (PFA) and post-fixed with PFA and 30% sucrose, respectively. Next, fixed brains were cut into 30 μm sections and kept in 30% sucrose-ethylene glycol solutions at −20° C. On the day of staining, sections were rinsed with phosphate-buffered saline (PBS) and incubated with different primary antibodies, including anti-IBA-1 (DAKO, Carpinteria, Calif.), anti-GFAP (Millipore, Billerica, Mass.), anti-iNOS (Santa Cruz Biotechnology, Santa Cruz, Calif.), anti-3NT (Millipore), anti-4HNE (R&D Systems, Minneapolis, Minn.) and anti-gp91phox (Santa Cruz Biotechnology) for overnight at 4° C. Appropriate secondary antibodies (Alexa Fluor 488, 594, or 555 from Invitrogen, Carlsbad, Calif.) were used followed by incubation with 10 μg/ml Hoechst 33342 for 5 min at room temperature to stain the nucleus. Sections were viewed under a Nikon inverted fluorescence microscope (model TE-2000U; Nikon, Tokyo, Japan). […]

[2] = tested on: IL-1β; assay: LPS-induced IL-1β release in primary microglia, LUMINEX immunoassay; assay type: cell-based, mouse; conditions: diapocynin 10 μM, LPS 24 hr
Procedure: Primary microglia were obtained from 1-2 day old C57/b16 mouse pups. Upon collection, whole brains were kept in ice-cold DMEM-F12 medium containing 10% FBS, 1× sodium pyruvate, 1× NEAAs, 100 units pen/strep, and Q. After collection, the brains were placed in 0.25% trypsin-EDTA and incubated at 37° C., with gentle shaking every 5-10 min. After 30 min, the trypsin was removed, and the brains are washed in warmed medium twice. After washing, medium was added to the brains, and the brains were homogenized using gentle pipetting, starting with a 25 ml pipette and moving to smaller pipette tips as the brains were broken up. When the brains were sufficiently homogenized to a single-cell suspension, they were filtered with a 70 μm nylon filter, which allowed microglia and astrocytes to be collected. The resultant cell suspension was plated in T-75 flasks and allowed to grow for 12-14 days at 37° C., 5% CO2. […]
Cytokine levels of BV2 and microglial cells treated with diapocynin were determined by LUMINEX® multiplex immunoassay. […]
Cytokine standards and controls were adjusted to 40 μl volume and the LUMINEX® Samples were run on a LUMINEX® 200 Total System and analyzed with Multiplex Analysis—LUMINEX® Software (Invitrogen, Carlsbad, Calif.).

[3] = tested on: MPTP mouse model of Parkinson's Disease; assay: HPLC analysis of striatal dopamine and its metabolites, MPTP mouse model (Example 3); assay type: in vivo, C57BL/6 mice; conditions: MPTP- and diapocynin-treated mice, diapocynin 300 mg/kg oral gavage, MPTP 25 mg/kg i.p.
Procedure: Six- to 8-week-old C57BL/6 mice weighing 24 to 28 g were housed in standard conditions of constant temperature (22±1° C.), humidity (relative, 30%), and a 12-h light/dark cycle. Mice were allowed free access to food and water. Use of the animals and protocol procedures were approved and supervised by the Committee on Animal Care at Iowa State University (Ames, Iowa). For neurodegeneration studies, mice either received diapocynin (300 mg/kg dose) by oral gavage for 1 day (pre-treatment before MPTP administration), 5 days (co-treatment with MPTP), or 7 days (post-treatment after MPTP).
as §1
Striatal dopamine (DA), DOPAC and HVA levels were quantified by high-performance liquid chromatography (HPLC) with electrochemical detection. Samples were prepared and quantified as described previously (48, 56). In brief, 7 days after MPTP injection mice were sacrificed, striata were collected and stored at −80° C. On the day of analysis, neurotransmitters from striatal tissues were extracted using an antioxidant extraction solution (0.1 M perchloric acid containing 0.05% Na2EDTA and 0.1% Na2S2O5) and isoproterenol (as an internal standard). The extracts were filtered in 0.22 μm spin tubes, and 20 μl of the samples were loaded for analysis. DA, DOPAC and HVA were separated isocratically on a reversed-phase column with a flow rate of 0.6 ml/min. An HPLC system with an automatic sampler equipped with refrigerated temperature control (model 542; ESA, Inc., Bedford, Mass.) was used for HPLC analysis. The electrochemical detection system consisted of a Coulochem (model 5100A, ESA, Inc.) with a microanalysis cell (model 5014A, ESA, Inc.) and a guard cell (model 5020, ESA, Inc.). […]

## COc1cc(C(C)=O)cc(-c2cc(C(C)=O)cc(OC)c2O)c1O [diapocynin]
[1]; diapocynin 300 mg/kg gavage, MPTP 25 mg/kg i.p.
  MPTP-induced expression of 3-NT in substantia nigra: attenuated
[1]; double-labeling, MPTP-treated mice that also received diapocynin 300 mg/kg
  TH positive cells colocalized with 3-NT: very few
[2]
  blocking LPS-induced release of IL-1β: very effective
[3]
  striatal DOPAC levels: significant preservation
  striatal HVA levels: significant preservation
[3]; 7 days after MPTP
  decrease of dopamine levels in striatum: less than 40%
